Results as given in ChEMBL document CHEMBL3991601, “The target landscape of clinical kinase drugs” (Science, 2017).
The source made the active and inactive calls.

Experiments:
[1] = target: Tyrosine-protein kinase Fyn (Homo sapiens, UniProt P06241)
[2] = target: T1, Peroxisomal acyl-coenzyme A oxidase 3 (Homo sapiens, UniProt O15254)
T1 sequence (O15254 whole entry): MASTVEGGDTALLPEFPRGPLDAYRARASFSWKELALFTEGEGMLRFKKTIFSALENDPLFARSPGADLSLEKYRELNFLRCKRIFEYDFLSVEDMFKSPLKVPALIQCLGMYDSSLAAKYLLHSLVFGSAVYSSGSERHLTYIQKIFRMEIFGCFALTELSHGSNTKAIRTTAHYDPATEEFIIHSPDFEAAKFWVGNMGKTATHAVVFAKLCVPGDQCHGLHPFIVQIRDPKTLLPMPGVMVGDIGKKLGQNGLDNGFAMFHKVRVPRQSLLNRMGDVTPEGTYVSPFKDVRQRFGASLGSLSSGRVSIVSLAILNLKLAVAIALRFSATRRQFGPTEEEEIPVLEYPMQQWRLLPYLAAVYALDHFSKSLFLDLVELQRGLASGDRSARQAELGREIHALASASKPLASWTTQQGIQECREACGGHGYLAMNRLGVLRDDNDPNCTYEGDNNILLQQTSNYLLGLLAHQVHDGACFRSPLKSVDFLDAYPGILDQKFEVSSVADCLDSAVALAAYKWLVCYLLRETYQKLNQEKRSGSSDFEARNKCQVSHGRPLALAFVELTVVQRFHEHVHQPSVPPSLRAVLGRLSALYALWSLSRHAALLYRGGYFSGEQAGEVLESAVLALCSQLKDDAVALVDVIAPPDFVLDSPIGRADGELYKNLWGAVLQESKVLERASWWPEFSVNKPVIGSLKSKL

[3] = target: Tyrosine-protein kinase SYK (Homo sapiens, UniProt P43405)
[4] = target: Cyclin-dependent kinase 4 (Homo sapiens, UniProt P11802)
Sequence of Cyclin-dependent kinase 4 (P11802 whole entry): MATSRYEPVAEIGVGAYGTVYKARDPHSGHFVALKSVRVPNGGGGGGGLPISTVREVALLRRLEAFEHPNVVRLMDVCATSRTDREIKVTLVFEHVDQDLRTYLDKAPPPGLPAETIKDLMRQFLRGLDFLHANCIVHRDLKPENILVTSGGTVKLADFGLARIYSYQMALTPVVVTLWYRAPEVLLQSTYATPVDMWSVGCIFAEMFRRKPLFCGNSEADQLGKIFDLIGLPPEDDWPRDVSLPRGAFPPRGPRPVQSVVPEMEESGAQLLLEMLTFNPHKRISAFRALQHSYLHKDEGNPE

[5] = target: Mitogen-activated protein kinase 8 (Homo sapiens, UniProt P45983)
Sequence of Mitogen-activated protein kinase 8 (P45983 whole entry): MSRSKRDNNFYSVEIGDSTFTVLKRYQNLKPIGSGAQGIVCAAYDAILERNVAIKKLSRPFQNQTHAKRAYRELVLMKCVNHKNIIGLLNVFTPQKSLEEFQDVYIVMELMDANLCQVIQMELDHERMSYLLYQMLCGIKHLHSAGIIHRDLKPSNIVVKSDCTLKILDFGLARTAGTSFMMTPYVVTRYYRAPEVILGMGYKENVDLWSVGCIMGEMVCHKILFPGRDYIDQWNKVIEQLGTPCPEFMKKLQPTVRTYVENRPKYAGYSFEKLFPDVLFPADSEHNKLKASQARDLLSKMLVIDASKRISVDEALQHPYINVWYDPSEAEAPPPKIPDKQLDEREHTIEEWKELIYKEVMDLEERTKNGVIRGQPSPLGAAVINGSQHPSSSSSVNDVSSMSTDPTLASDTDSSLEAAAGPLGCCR

[6] = target: cAMP-dependent protein kinase catalytic subunit beta (Homo sapiens, UniProt P22694)
[7] = target: Activin receptor type-2B (Homo sapiens, UniProt Q13705)
Sequence of Activin receptor type-2B (Q13705 whole entry): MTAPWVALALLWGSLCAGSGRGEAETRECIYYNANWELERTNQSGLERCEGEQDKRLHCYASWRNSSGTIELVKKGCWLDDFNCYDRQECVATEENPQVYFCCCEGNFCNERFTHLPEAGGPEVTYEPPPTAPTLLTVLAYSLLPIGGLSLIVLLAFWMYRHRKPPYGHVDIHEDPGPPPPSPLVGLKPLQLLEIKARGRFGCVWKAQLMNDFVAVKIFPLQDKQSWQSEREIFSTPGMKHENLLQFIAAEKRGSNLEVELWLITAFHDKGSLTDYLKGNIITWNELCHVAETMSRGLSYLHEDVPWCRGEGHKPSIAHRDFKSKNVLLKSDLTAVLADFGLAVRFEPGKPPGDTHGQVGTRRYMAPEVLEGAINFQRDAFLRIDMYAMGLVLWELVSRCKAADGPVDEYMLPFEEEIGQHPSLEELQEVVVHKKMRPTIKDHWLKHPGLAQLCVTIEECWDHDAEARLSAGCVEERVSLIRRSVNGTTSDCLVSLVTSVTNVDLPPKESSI

[8] = target: Serine/threonine-protein kinase MRCK beta (Homo sapiens, UniProt Q9Y5S2)
Sequence of Serine/threonine-protein kinase MRCK beta (Q9Y5S2 whole entry): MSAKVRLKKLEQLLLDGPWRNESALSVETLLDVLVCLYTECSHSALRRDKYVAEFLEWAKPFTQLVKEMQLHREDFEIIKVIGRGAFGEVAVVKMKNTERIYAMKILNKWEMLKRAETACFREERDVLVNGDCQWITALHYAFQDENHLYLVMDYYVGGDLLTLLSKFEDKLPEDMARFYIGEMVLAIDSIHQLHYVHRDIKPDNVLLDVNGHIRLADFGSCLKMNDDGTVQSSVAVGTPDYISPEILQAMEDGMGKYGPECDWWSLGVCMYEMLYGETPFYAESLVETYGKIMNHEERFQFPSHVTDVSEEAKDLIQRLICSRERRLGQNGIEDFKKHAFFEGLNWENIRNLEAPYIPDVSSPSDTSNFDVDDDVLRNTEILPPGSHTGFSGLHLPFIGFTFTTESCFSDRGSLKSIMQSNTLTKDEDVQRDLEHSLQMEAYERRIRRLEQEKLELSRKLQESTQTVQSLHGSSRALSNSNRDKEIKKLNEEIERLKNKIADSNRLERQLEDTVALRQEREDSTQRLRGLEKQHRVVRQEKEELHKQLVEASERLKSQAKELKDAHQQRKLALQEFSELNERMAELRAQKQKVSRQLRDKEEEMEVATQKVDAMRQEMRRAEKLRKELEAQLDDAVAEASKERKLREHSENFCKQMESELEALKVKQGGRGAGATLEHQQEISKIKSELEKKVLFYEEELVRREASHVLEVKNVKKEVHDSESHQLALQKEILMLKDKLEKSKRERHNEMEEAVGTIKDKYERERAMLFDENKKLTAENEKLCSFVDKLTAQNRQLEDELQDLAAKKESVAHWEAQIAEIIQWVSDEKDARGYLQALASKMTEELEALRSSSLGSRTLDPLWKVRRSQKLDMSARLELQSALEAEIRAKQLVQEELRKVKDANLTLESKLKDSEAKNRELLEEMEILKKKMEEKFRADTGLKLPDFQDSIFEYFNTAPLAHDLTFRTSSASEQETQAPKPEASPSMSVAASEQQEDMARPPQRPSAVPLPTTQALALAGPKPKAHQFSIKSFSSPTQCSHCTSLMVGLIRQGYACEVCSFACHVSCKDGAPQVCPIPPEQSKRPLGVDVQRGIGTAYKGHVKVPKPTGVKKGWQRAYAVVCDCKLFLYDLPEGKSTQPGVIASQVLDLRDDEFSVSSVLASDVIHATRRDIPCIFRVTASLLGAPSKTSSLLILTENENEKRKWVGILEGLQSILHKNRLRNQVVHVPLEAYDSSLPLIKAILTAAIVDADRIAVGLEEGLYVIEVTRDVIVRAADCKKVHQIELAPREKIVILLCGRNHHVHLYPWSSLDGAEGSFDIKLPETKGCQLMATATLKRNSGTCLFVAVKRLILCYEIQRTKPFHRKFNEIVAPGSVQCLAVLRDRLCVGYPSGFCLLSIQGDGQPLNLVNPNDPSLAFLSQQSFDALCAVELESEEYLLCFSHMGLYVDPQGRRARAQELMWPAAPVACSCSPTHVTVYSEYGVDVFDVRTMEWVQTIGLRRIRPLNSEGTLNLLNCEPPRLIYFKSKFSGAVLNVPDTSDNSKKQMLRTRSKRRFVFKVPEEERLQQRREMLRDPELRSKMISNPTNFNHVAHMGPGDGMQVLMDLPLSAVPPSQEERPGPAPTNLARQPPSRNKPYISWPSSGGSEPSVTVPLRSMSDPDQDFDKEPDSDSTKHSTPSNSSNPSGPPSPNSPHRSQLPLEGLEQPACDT

[9] = target: T2, Glycogen phosphorylase, liver form (Homo sapiens, UniProt P06737); type: subcellular, K-562, COLO 205, SK-N-BE(2) and MV-4-11, Cell lysate; conditions: read-out: Kd apparent
T2 sequence (P06737 whole entry): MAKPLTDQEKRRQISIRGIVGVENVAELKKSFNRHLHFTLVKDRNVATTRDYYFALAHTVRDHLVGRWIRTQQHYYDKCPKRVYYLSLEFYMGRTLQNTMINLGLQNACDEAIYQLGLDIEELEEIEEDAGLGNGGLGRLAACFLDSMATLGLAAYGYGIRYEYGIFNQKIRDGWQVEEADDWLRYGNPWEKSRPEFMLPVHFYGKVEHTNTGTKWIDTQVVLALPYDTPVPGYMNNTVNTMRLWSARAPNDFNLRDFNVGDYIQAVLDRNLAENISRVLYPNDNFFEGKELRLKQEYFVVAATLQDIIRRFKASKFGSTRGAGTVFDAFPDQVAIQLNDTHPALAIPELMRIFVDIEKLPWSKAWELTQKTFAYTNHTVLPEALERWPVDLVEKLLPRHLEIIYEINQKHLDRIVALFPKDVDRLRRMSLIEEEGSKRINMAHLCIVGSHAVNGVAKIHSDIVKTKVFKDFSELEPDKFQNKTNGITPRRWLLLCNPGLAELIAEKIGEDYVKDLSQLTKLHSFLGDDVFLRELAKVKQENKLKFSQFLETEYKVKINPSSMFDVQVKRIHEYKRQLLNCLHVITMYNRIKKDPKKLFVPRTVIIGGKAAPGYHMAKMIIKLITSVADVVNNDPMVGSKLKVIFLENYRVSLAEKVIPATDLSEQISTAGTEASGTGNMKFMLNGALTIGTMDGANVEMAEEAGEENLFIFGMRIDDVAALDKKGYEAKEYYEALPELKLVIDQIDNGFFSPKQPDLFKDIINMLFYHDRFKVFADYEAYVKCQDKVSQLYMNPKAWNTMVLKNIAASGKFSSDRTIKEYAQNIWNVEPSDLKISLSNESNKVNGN

[10] = target: T3, Delta(24)-sterol reductase (Homo sapiens, UniProt Q15392)
T3 sequence (Q15392 whole entry): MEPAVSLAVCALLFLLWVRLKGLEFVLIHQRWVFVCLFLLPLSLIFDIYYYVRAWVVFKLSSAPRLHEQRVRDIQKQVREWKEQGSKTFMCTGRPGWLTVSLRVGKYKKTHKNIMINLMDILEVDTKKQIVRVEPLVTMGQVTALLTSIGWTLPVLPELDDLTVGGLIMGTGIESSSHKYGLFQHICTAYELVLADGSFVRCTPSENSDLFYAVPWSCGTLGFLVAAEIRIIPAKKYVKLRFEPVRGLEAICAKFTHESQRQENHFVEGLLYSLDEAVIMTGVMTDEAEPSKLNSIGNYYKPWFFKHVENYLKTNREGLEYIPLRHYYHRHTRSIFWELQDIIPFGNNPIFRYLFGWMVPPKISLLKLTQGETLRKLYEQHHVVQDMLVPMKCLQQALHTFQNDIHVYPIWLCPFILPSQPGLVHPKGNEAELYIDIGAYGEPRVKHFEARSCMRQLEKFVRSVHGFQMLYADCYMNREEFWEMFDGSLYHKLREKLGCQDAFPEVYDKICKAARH

[11] = target: T4, Succinate--CoA ligase [ADP-forming] subunit beta, mitochondrial (Homo sapiens, UniProt Q9P2R7)
T4 sequence (Q9P2R7 whole entry): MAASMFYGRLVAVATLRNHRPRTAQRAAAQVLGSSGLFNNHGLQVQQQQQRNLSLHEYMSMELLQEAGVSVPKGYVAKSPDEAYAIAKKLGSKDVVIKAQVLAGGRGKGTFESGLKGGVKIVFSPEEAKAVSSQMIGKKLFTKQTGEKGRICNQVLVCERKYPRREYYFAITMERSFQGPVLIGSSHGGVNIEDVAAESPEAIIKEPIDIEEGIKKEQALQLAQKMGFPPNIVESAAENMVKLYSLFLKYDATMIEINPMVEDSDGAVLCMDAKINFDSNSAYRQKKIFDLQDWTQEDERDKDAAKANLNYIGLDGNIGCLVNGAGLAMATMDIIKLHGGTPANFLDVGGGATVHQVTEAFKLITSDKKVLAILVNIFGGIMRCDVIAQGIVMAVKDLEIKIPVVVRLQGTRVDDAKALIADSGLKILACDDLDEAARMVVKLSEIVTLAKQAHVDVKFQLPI
Also: in the data inactive means no Kd found up to 30 µM.

Sequence of Tyrosine-protein kinase Fyn (P06241 whole entry): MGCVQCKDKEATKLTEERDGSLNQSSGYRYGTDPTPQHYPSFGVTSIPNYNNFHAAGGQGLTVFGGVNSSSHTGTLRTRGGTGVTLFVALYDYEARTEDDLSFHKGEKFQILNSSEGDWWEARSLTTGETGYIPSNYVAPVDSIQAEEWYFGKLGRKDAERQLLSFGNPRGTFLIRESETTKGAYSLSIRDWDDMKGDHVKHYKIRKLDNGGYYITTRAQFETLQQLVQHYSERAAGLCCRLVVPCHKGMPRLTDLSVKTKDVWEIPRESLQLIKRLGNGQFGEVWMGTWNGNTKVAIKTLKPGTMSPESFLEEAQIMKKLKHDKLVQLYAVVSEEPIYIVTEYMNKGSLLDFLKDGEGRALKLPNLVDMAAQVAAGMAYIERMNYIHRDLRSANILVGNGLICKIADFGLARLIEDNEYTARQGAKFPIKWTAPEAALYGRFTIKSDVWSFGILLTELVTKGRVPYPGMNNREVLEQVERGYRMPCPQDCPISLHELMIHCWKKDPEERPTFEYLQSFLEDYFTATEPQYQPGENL

Structure (SMILES)	Kd [1]	Kd [2]	Kd [3]	Kd [4]	Kd [5]	Kd [6]	Kd [7]	Kd [8]	Kd [9]	Kd [10]	Kd [11]
CCS(=O)(=O)N1CC(CC#N)(n2cc(-c3ncnc4[nH]ccc34)cn2)C1 [BARICITINIB]	> 30 µM (inactive)	> 30 µM (inactive)	> 30 µM (inactive)	> 30 µM (inactive)	> 30 µM (inactive)	> 30 µM (inactive)	> 30 µM (inactive)	> 30 µM (inactive)	> 30 µM (inactive)	> 30 µM (inactive)	> 30 µM (inactive)
Cc1cc2c(F)c(Oc3ncnn4cc(OC[C@@H](C)OC(=O)[C@H](C)N)c(C)c34)ccc2[nH]1 [BRIVANIB ALANINATE]	> 30 µM (inactive)	> 30 µM (inactive)	> 30 µM (inactive)	> 30 µM (inactive)	> 30 µM (inactive)	> 30 µM (inactive)	> 30 µM (inactive)	> 30 µM (inactive)	> 30 µM (inactive)	> 30 µM (inactive)	> 30 µM (inactive)
CNC(=O)c1ccc(-c2cnc3ncc(Cc4ccc5ncccc5c4)n3n2)cc1F [CAPMATINIB]	> 30 µM (inactive)	> 30 µM (inactive)	> 30 µM (inactive)	> 30 µM (inactive)	> 30 µM (inactive)	> 30 µM (inactive)	> 30 µM (inactive)	> 30 µM (inactive)	> 30 µM (inactive)	> 30 µM (inactive)	> 30 µM (inactive)
O=C(c1ccc(F)c(F)c1Nc1ccc(I)cc1F)N1CC(O)([C@@H]2CCCCN2)C1 [COBIMETINIB]	> 30 µM (inactive)	> 30 µM (inactive)	> 30 µM (inactive)	> 30 µM (inactive)	> 30 µM (inactive)	> 30 µM (inactive)	> 30 µM (inactive)	> 30 µM (inactive)	> 30 µM (inactive)	> 30 µM (inactive)	> 30 µM (inactive)
COC(=O)N[C@@H](C)CNc1nccc(-c2cn(C(C)C)nc2-c2cc(Cl)cc(NS(C)(=O)=O)c2F)n1 [ENCORAFENIB]	> 30 µM (inactive)	> 30 µM (inactive)	> 30 µM (inactive)	0.112 µM (active)	1.87 µM (active)	> 30 µM (inactive)	> 30 µM (inactive)	> 30 µM (inactive)	> 30 µM (inactive)	> 30 µM (inactive)	> 30 µM (inactive)
CO[C@H]1C[C@@H]2CC[C@@H](C)[C@@](O)(O2)C(=O)C(=O)N2CCCC[C@H]2C(=O)O[C@H]([C@H](C)C[C@@H]2CC[C@@H](OCCO)[C@H](OC)C2)CC(=O)[C@H](C)/C=C(\C)[C@@H](O)[C@@H](OC)C(=O)[C@H](C)C[C@H](C)/C=C/C=C/C=C/1C [EVEROLIMUS]	> 30 µM (inactive)	> 30 µM (inactive)	> 30 µM (inactive)	> 30 µM (inactive)	> 30 µM (inactive)	> 30 µM (inactive)	> 30 µM (inactive)	> 30 µM (inactive)	> 30 µM (inactive)	> 30 µM (inactive)	> 30 µM (inactive)
COCCNCc1ccc(-c2cc3nccc(Oc4ccc(NC(=S)NC(=O)Cc5ccc(F)cc5)cc4F)c3s2)nc1 [GLESATINIB]	1.24 µM (active)	> 30 µM (inactive)	2.68 µM (active)	> 30 µM (inactive)	> 30 µM (inactive)	> 30 µM (inactive)	> 30 µM (inactive)	> 30 µM (inactive)	> 30 µM (inactive)	> 30 µM (inactive)	> 30 µM (inactive)
O=C1NC(=O)/C(=C/c2ccc3nccc(-c4ccncc4)c3c2)S1 [GSK-1059615]	> 30 µM (inactive)	> 30 µM (inactive)	> 30 µM (inactive)	> 30 µM (inactive)	> 30 µM (inactive)	> 30 µM (inactive)	> 30 µM (inactive)	> 30 µM (inactive)	> 30 µM (inactive)	> 30 µM (inactive)	> 30 µM (inactive)
CC[C@H](Nc1ncnc2[nH]cnc12)c1nc2cccc(F)c2c(=O)n1-c1ccccc1 [IDELALISIB]	> 30 µM (inactive)	> 30 µM (inactive)	> 30 µM (inactive)	> 30 µM (inactive)	> 30 µM (inactive)	> 30 µM (inactive)	> 30 µM (inactive)	> 30 µM (inactive)	> 30 µM (inactive)	> 30 µM (inactive)	> 30 µM (inactive)
Cn1cc(-c2ccc3nnc(C(F)(F)c4ccc5ncccc5c4)n3n2)cn1 [JNJ-38877605]	> 30 µM (inactive)	> 30 µM (inactive)	> 30 µM (inactive)	> 30 µM (inactive)	> 30 µM (inactive)	> 30 µM (inactive)	> 30 µM (inactive)	> 30 µM (inactive)	> 30 µM (inactive)	> 30 µM (inactive)	> 30 µM (inactive)
Cc1c(F)cc(C(=O)NC2CC2)cc1-c1ccc(C(=O)NCC(C)(C)C)cn1 [LOSMAPIMOD]	> 30 µM (inactive)	> 30 µM (inactive)	> 30 µM (inactive)	> 30 µM (inactive)	> 30 µM (inactive)	> 30 µM (inactive)	> 30 µM (inactive)	> 30 µM (inactive)	> 30 µM (inactive)	> 30 µM (inactive)	> 30 µM (inactive)
Cn1cc(-c2ccc(F)c(C(F)(F)F)c2)nc1C1CCN(c2ncnc3[nH]ncc23)CC1 [LY-2584702]	> 30 µM (inactive)	> 30 µM (inactive)	> 30 µM (inactive)	> 30 µM (inactive)	> 30 µM (inactive)	> 30 µM (inactive)	> 30 µM (inactive)	> 30 µM (inactive)	> 30 µM (inactive)	> 30 µM (inactive)	> 30 µM (inactive)
